Patent US20240327364A1, “THERAPEUTIC TARGETING OF GPR68 TO INDUCE FERROPTOSIS” (University Of Maryland, Baltimore, priority 2023, published 2024)

tested on: LPS-induced ALI; assay: LPS-induced acute lung injury; format: in vivo, mice; details: LPS 0.7 mg/kg intratracheally; compounds intraperitoneally
Source text: PMN (polymorphonuclear neutrophils).

Row | SMILES | inflammatory cell infiltrates in BAL
1 | COc1ccc(C2=NNC3(S2)C(=O)Nc2ccc(OC)cc23)cc1 (stereo not drawn) [OGM17] | reduced inflammatory cell infiltrates in BAL

same assay, conditions: mouse, in vivo

Row | SMILES | reversal of markers of ALI, comparison with OGM2
2 | COc1ccc(C2=NNC3(S2)C(=O)Nc2ccc(OC)cc23)cc1 (stereo not drawn) [OGM17] | much more potent in reversing the markers of ALI due to LPS in vivo

molecular target: T1, GPR68/OGR1 (Homo sapiens, UniProt Q15743); assay: CHEM1-OGR1 cells Fluo-8 calcium assay, acidified media pH 6.4; format: cell-based; details: Table 5; read-out: GPR68
T1 construct: host or cells: Chem-1 (CHEM1-OGR1) cells
Protocol: Briefly, the methods were: On the day before the assay 20,000 cells per well of CHEM1-OGR1 cells were plated in 10% DMEM containing 10% FBS and 1% Pen/Strep into a 96 well plate. After 24 hours media was removed and cells were stained with 80 μL Fluo-8 calcium indicator dye according to manufacturer's protocol. After staining cells were treated with 20 uL of 4× concentration of test compounds. Using kinetic imaging in the Lionheart HCS fluorescence intensity was continuously measure at 10 frames per second, for 5 seconds before 100 μL of acidified media was added to the well resulting in a pH of 6.4. A ratio of fluorescence intensities prior to addition and at peak were calculated and averaged. The resulting data were platted and using a 4 parameter logistic regression EC50 (the concentration causing 50% effective inhibition) for each test compound was determined.

T1 sequence (Q15743 whole entry): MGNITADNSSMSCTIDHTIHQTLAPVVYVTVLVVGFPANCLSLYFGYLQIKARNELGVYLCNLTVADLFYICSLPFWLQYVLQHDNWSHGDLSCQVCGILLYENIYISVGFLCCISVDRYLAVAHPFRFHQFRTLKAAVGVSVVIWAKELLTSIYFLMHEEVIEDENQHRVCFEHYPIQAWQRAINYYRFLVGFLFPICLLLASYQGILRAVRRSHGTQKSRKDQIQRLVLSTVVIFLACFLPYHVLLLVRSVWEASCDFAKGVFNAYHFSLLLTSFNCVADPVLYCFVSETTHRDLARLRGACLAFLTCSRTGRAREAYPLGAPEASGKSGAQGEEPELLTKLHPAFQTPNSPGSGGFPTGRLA

Row | EC50 | SMILES
3 | 0.76 µM | Cc1ccc2c(c1)C1(NN=C(c3ccccc3)S1)C(=O)N2 (stereo not drawn) [OGM3]
4 | 3.4 µM | CCc1ccc2c(c1)C1(NN=C(c3ccccc3O)S1)C(=O)N2 (stereo not drawn) [OGM4]
5 | 1.5 µM | CN1C(=O)C2(NN=C(c3cccc4ccccc34)S2)c2ccccc21 (stereo not drawn) [OGM6]

same assay, conditions: concentration causing 50% effective inhibition of calcium response to pH 6.4; read-out: EC50

Row | SMILES | EC50
6 | O=C1Nc2ccc(Cl)cc2C12NN=C(c1ccccc1)S2 (stereo not drawn) [OGM7] | 1.17 µM
7 | O=C1Nc2ccccc2C12NN=C(c1ccccc1)S2 (stereo not drawn) [OGM8] | 2.74 µM
8 | COc1ccc(C2=NNC3(S2)C(=O)Nc2ccccc23)cc1 (stereo not drawn) [OGM10] | 1.44 µM
9 | COc1ccc(C2=NNC3(S2)C(=O)Nc2ccc(Cl)cc23)cc1 (stereo not drawn) [OGM11] | 4.39 µM
10 | COc1ccc(C2=NNC3(S2)C(=O)Nc2ccc(F)cc23)cc1 (stereo not drawn) [OGM12] | 0.756 µM
11 | O=C1Nc2ccccc2C12NN=C(c1ccc(Cl)cc1)S2 (stereo not drawn) [OGM13] | < 0.826 µM
12 | Cc1ccc(C2=NNC3(S2)C(=O)Nc2ccccc23)cc1 (stereo not drawn) [OGM15] | 1.06 µM
13 | Cc1ccc(C2=NNC3(S2)C(=O)Nc2ccc(F)cc23)cc1 (stereo not drawn) [OGM18] | 0.769 µM
14 | O=C1Nc2ccc(Cl)cc2C12NN=C(c1ccc(Cl)cc1)S2 (stereo not drawn) [OGM19] | 2.32 µM
15 | O=C1Nc2ccc(Cl)cc2C12NN=C(c1cccc3ccccc13)S2 (stereo not drawn) [OGM23] | 0.5 µM
16 | COc1ccc2cc(C3=NNC4(S3)C(=O)Nc3ccc(Cl)cc34)ccc2c1 (stereo not drawn) [OGM24] | 0.09 µM
17 | COc1ccc(C2=NNC3(S2)C(=O)N(CC=C(C)C)c2ccccc23)cc1 (stereo not drawn) [OGM30] | > 10 µM
18 | CC(C)=CCN1C(=O)C2(NN=C(c3cccc4ccccc34)S2)c2ccccc21 (stereo not drawn) [OGM33] | > 10 µM
19 | CN1C(=O)C2(NN=C(c3ccccc3)S2)c2cc(Br)ccc21 (stereo not drawn) [OGM36] | 5.6 µM
20 | COC(=O)c1ccc2c(c1)C1(NN=C(c3ccc4ncccc4c3)S1)C(=O)N2 (stereo not drawn) [OGM37] | 3.69 µM
21 | COc1ccc2c(c1)C1(NN=C(c3cccc4cccnc34)S1)C(=O)N2 (stereo not drawn) [OGM38] | 2.62 µM
22 | COc1ccc2c(c1)NC(=O)C21NN=C(c2ccc3ncccc3c2)S1 (stereo not drawn) [OGM39] | 1.17 µM
23 | CCc1ccc2c(c1)C1(NN=C(c3ccc4ncccc4c3)S1)C(=O)N2 (stereo not drawn) [OGM40] | 1.19 µM

Row | SMILES | EC50
24 | COC(=O)c1ccc2c(c1)C1(NN=C(c3ccccc3)S1)C(=O)N2 (stereo not drawn) [OGM41] | 2.26 µM
25 | COc1ccc2c(c1)C1(NN=C(c3ccc4ncccc4c3)S1)C(=O)N2 (stereo not drawn) [OGM43] | > 10 µM
26 | COC(=O)c1ccc2c(c1)C1(NN=C(c3cccc4cccnc34)S1)C(=O)N2 (stereo not drawn) [OGM44] | 4.05 µM
27 | COC(=O)c1ccc2c(c1)C1(NN=C(c3cccnc3)S1)C(=O)N2 (stereo not drawn) [OGM47] | > 10 µM
28 | CCc1ccc2c(c1)C1(NN=C(c3cccnc3)S1)C(=O)N2 (stereo not drawn) [OGM48] | > 10 µM
29 | CCc1ccc2c(c1)C1(NN=C(c3ccnc(OC)c3)S1)C(=O)N2 (stereo not drawn) [OGM49, 5-ethyl-5′-(2-methoxypyridin-4-yl)-1,2-dihydro-3′H-spiro[indole-3,2′-[1,3,4]thiadiazol]-2-one: 2,2,2-trifluoroacetic acid] | 1.42 µM
30 | COc1ccc2c(c1)NC(=O)C21NN=C(c2ccnc(OC)c2)S1 (stereo not drawn) [OGM51] | 3.57 µM
31 | NS(=O)(=O)c1ccc2c(c1)C1(NN=C(c3ccccc3)S1)C(=O)N2 (stereo not drawn) [OGM52] | 3.73 µM
32 | O=C(O)c1ccc2c(c1)C1(NN=C(c3ccc4ncccc4c3)S1)C(=O)N2 (stereo not drawn) [OGM54] | 4.77 µM
33 | NS(=O)(=O)c1ccc2c(c1)C1(NN=C(c3ccc4ncccc4c3)S1)C(=O)N2 (stereo not drawn) [OGM55] | 3.93 µM
34 | O=C1Nc2ccc(F)cc2C12NN=C(c1cccnc1)S2 (stereo not drawn) [OGM56] | 3.58 µM
35 | CCc1ccc2c(c1)C1(NN=C(c3cccc4cccnc34)S1)C(=O)N2 (stereo not drawn) [OGM58] | 5.48 µM
36 | O=C(O)c1ccc2c(c1)C1(NN=C(c3cccnc3)S1)C(=O)N2 (stereo not drawn) [OGM61] | 2.19 µM
37 | COc1ccc2c(c1)C1(NN=C(c3ccnc(OC)c3)S1)C(=O)N2 (stereo not drawn) [OGM63] | 3.52 µM
38 | CCc1ccc2c(c1)C1(NN=C(c3ccc(C(F)(F)F)nc3)S1)C(=O)N2 (stereo not drawn) [OGM71] | 10.5 µM
39 | COc1ccc2c(c1)C1(NN=C(c3ccc(C(F)(F)F)nc3)S1)C(=O)N2 (stereo not drawn) [OGM75] | 1.59 µM
40 | O=C1Nc2ccc(F)cc2C12NN=C(c1ccc(C(F)(F)F)nc1)S2 (stereo not drawn) [OGM76] | 5.76 µM

Further lines, results first:

Row | EC50 | SMILES
41 | 2.84 µM | O=C1Nc2ccc(F)cc2C12NN=C(c1ccccc1)S2 (stereo not drawn) [OGM9]
42 | 1.83 µM | O=C1Nc2ccc(F)cc2C12NN=C(c1ccc(Cl)cc1)S2 (stereo not drawn) [OGM14]
43 | 0.785 µM | Cc1ccc(C2=NNC3(S2)C(=O)Nc2ccc(Cl)cc23)cc1 (stereo not drawn) [OGM16]
44 | 0.262 µM | COc1ccc(C2=NNC3(S2)C(=O)Nc2ccc(OC)cc23)cc1 (stereo not drawn) [OGM17]
45 | 4 µM | O=C1Nc2ccccc2C12NN=C(c1ccc(F)cc1)S2 (stereo not drawn) [OGM20]
46 | 0.722 µM | O=C1Nc2ccc(Cl)cc2C12NN=C(c1ccc(F)cc1)S2 (stereo not drawn) [OGM21]
47 | 0.669 µM | COc1ccc2c(c1)C1(NN=C(c3ccc(Cl)cc3)S1)C(=O)N2 (stereo not drawn) [OGM22]
48 | 0.655 µM | COc1ccc2cc(C3=NNC4(S3)C(=O)Nc3ccc(F)cc34)ccc2c1 (stereo not drawn) [OGM26]
49 | > 10 µM | CCc1ccc2c(c1)C1(NN=C(c3ccc4cc(OC)ccc4c3)S1)C(=O)N2 (stereo not drawn) [OGM27]
50 | > 10 µM | CCc1ccc2c(c1)C1(NN=C(c3ccc(OC)cc3)S1)C(=O)N2 (stereo not drawn) [OGM28]
51 | > 10 µM | COc1ccc(C2=NNC3(S2)C(=O)N(CC=C(C)C)c2ccc(Cl)cc23)cc1 (stereo not drawn) [OGM29]
52 | 9.08 µM | CC(C)=CCN1C(=O)C2(NN=C(c3ccc(Cl)cc3)S2)c2cc(Cl)ccc21 (stereo not drawn) [OGM31]
53 | > 10 µM | CC(C)=CCN1C(=O)C2(NN=C(c3cccc4ccccc34)S2)c2cc(Cl)ccc21 (stereo not drawn) [OGM32]
54 | > 10 µM | COc1ccc2cc(C3=NNC4(S3)C(=O)N(CC=C(C)C)c3ccccc34)ccc2c1 (stereo not drawn) [OGM34]
55 | > 10 µM | COc1ccc2cc(C3=NNC4(S3)C(=O)N(CC=C(C)C)c3ccc(Cl)cc34)ccc2c1 (stereo not drawn) [OGM35]
56 | 1.88 µM | O=C(O)c1ccc2c(c1)C1(NN=C(c3ccccc3)S1)C(=O)N2 (stereo not drawn) [OGM42]
57 | 1.47 µM | O=C1Nc2ccc(F)cc2C12NN=C(c1cccc3cccnc13)S2 (stereo not drawn) [OGM46]
58 | 0.832 µM | COc1ccc2c(c1)NC(=O)C21NN=C(c2ccncc2)S1 (stereo not drawn) [OGM59]
59 | > 10 µM | COc1ccc2c(c1)C1(NN=C(c3ccc(Br)cc3)S1)C(=O)N2 (stereo not drawn) [OGM73]
60 | 0.296 µM | O=C1Nc2ccc(F)cc2C12NN=C(c1ccc(Br)cc1)S2 (stereo not drawn) [OGM74]

molecular target: Lpa1 (Homo sapiens, UniProt Q92633); assay: Lpa1 activity of OGM analogs (Table 5); format: cell-based; details: not given
Protocol: GPCR profiling assays were performed by Millipore (St. Louis, MO) using in cells expressing Gα15, a promiscuous G protein that enhances GPCR coupling to downstream Ca2+ signaling pathways. KinomeScan was conducted by DiscoveRx (Fremont, CA). Since GPCRs represent >30% of targets for FDA-approved small molecules and are known to modulate cell migration, activity against 158 GPCRs was assessed based on their chemical structures. GPCRs (158) were tested for agonist and antagonist activity at 10 μM. […] Chemical segregation analysis of zebrafish phenotype was conducted to further identify the inhibitory activity responsible for the zebrafish phenotype. […] The identities of the R groups in Formula A are shown below in Table 5.

Sequence of Lpa1 (Q92633 whole entry, species assumed): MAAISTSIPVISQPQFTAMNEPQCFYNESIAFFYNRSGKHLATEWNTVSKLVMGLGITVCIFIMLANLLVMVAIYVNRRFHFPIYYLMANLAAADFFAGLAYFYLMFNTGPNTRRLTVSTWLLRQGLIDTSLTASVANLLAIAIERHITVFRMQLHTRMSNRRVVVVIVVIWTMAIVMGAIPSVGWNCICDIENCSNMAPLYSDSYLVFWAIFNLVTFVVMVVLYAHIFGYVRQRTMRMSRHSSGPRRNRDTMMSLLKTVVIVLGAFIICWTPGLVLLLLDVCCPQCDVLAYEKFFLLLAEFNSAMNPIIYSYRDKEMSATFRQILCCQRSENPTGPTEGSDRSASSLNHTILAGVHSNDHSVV

Row | IC50 | SMILES
61 | 6.4 µM | Cc1ccc2c(c1)C1(NN=C(c3ccccc3)S1)C(=O)N2 (stereo not drawn) [OGM3]
62 | 1.4 µM | CCc1ccc2c(c1)C1(NN=C(c3ccccc3O)S1)C(=O)N2 (stereo not drawn) [OGM4]

Row | SMILES | IC50
63 | Cc1noc(-c2ccc(CSCCC(=O)O)cc2)c1NC(=O)OC(C)c1ccccc1Cl (stereo not drawn) [LPAi] | 0.25 µM

tested on: zebrafish embryo; assay: Zebrafish embryo phenotype; format: in vivo; details: concentrations up to 50 μM, ˜200× its IC50
Protocol: A chemical screen for small molecules that perturb embryonic development (dorsoventral axis) in zebrafish was performed as previously described (see Chen et al., 2009; Hao et al., 2013; Williams et al., 2015; Yu et al., 2008)). Briefly, pairs of WT zebrafish were mated, and fertilized eggs were arrayed in 96-well microtiter plates (5 embryos/well) containing […] E3 water. At 4 hours post fertilization (pf), a small molecule library from Vanderbilt High Throughput Screening Facility was added to each well to a final concentration of 10 μM. Embryos were incubated at 28.5 C until 24 and 48 hours pf, when they were examined for gross morphologic changes indicative of reproducible embryonic defects (dorsalization of the embryonic axis). A total of 30,000 compounds were screened. To discover novel small molecule modulators of embryonic development an unbiased screen of ˜30,000 small molecules was conducted, in which the compounds were assayed for their ability to induce phenotypic changes in the morphology of zebrafish. Further information on these assays can be found in Hao et al., 2013 and Williams et al., 2015. […] This compound was identified based on the phenotype of aberrant pigmentation. Compare FIG. 2B and FIG. 2C, which show a dorsal view of a representative DMSO vehicle control-treated zebrafish embryo at 48 hours pf and a dorsal view of a representative OGM1 (10 uM)-treated zebrafish embryo at 48 hours pf. […] Since GPCRs represent >30% of targets for FDA-approved small molecules and are known to modulate cell migration, activity against 158 GPCRs was assessed based on their chemical structures. GPCRs (158) were tested for agonist and antagonist activity at 10 μM. […] Chemical segregation analysis of zebrafish phenotype was conducted to further identify the inhibitory activity responsible for the zebrafish phenotype. […] The identities of the R groups in Formula A are shown below in Table 5.

Row | SMILES | induction of zebrafish phenotype
64 | Cc1noc(-c2ccc(CSCCC(=O)O)cc2)c1NC(=O)OC(C)c1ccccc1Cl (stereo not drawn) [LPAi] | failed to induce the phenotype

same assay, conditions: concentrations up to 200× the IC50

Row | SMILES | induction of zebrafish phenotype
65 | Cc1noc(-c2ccc(CSCCC(=O)O)cc2)c1NC(=O)OC(C)c1ccccc1Cl (stereo not drawn) [LPAi] | failed to induce a noticeable phenotype
66 | COc1cc(Br)c(S(=O)(=O)Nc2ccc(Cl)c(O[C@@H]3CCN(C)C3)c2)cc1OC [UT2i] | failed to induce a noticeable phenotype
